# Experimental data reported in ChEMBL document CHEMBL1201862, “PubChem BioAssay data set” (2004).
# The source made the active and inactive calls.
# Legend:
# NADPH oxidase 1 = target: T1, NADPH oxidase 1 (Homo sapiens, UniProt Q9Y5S8); test: Late-stage luminescence-based cell-based dose response assay to identify inhibitors of NADPH oxidase 1 (NOX1): Purchased analogs 2.; assay type: functional
# T1 sequence (Q9Y5S8 whole entry): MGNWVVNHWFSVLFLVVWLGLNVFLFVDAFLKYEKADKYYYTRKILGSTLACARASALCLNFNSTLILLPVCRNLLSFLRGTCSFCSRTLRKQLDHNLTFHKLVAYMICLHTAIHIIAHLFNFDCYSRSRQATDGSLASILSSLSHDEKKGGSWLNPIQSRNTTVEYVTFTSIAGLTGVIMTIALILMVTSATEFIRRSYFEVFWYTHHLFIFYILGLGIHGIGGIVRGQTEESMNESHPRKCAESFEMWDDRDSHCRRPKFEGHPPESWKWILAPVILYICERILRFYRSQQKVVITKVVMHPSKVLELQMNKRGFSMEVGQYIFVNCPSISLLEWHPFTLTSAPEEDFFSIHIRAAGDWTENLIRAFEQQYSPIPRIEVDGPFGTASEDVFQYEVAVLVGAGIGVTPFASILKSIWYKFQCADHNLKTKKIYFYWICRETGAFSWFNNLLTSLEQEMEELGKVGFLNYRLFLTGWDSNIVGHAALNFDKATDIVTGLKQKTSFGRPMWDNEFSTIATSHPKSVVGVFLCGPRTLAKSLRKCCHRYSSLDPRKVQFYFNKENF
# [1] = target: Voltage-gated inwardly rectifying potassium channel KCNH2 (Homo sapiens, UniProt Q12809); test: hERG protection from proarrhythmic block, potency, dose response, cell-based, thallium flux (AID 2121); assay type: ADME
# CHO-K1 = test: (§1) Counterscreen for antagonists of the orexin 1 receptor (OX1R; HCRTR1): Homogeneous time resolved fluorescence (HTRF)-based cell-based dose response assay to identify antagonists of the parental CHO-K1 cell line. [Related pubchem assays (depositor defined):AID434989, AID435008, AID463079, AID485270, AID492963, AID492964, AID492965, AID493232, AID504699, AID504701]; assay type: functional; conditions: Cricetulus griseus
# [2] = as §1, with “Fluorescence-based” for “Homogeneous time resolved fluorescence (HTRF)-based”, “cell-based high throughput” for “cell-based”, “CHO” for “CHO-K1”; assay type: functional
# [3] = target: T2, Orexin/Hypocretin receptor type 1 (Homo sapiens, UniProt O43613); test: Homogeneous Time Resolved Fluorescence (HTRF)-based cell-based high throughput dose response assay for antagonists of the orexin 1 receptor (OX1R; HCRTR1). [Related pubchem assays (depositor defined):AID434989, AID435008, AID463079, AID485270, AID492963, AID492964, AID492965, AID493232, AID504717, AID504718]; assay type: functional
# T2 sequence (O43613 whole entry): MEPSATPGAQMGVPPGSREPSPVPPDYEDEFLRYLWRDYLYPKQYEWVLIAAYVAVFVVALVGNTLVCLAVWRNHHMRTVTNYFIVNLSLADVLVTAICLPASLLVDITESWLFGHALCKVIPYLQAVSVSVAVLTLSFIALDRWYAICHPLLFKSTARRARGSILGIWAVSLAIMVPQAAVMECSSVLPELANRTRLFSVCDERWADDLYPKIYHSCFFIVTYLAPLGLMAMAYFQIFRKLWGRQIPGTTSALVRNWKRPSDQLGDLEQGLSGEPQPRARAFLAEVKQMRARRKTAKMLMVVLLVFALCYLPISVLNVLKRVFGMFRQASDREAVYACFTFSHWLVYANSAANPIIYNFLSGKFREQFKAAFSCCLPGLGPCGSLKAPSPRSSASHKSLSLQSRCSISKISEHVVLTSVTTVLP
# [4] = target: T2, Orexin/Hypocretin receptor type 1; test: Fluorescence-based cell-based high throughput dose response assay for antagonists of the orexin 1 receptor (OX1R; HCRTR1). [Related pubchem assays (depositor defined):AID434989, AID435008, AID463079, AID485270, AID492963, AID492964, AID492965, AID493232, AID504717, AID504718]; assay type: functional
# Orexin receptor type 2 [5] = target: T3, Orexin receptor type 2 (Homo sapiens, UniProt O43614); test: Counterscreen assay for antagonists of the orexin 1 receptor (OX1R; HCRTR1): Fluorescence-based cell-based dose response assay for antagonists of the orexin 2 receptor (OX2R; HCRTR2), run by assay provider.; assay type: functional
# T3 sequence (O43614 whole entry): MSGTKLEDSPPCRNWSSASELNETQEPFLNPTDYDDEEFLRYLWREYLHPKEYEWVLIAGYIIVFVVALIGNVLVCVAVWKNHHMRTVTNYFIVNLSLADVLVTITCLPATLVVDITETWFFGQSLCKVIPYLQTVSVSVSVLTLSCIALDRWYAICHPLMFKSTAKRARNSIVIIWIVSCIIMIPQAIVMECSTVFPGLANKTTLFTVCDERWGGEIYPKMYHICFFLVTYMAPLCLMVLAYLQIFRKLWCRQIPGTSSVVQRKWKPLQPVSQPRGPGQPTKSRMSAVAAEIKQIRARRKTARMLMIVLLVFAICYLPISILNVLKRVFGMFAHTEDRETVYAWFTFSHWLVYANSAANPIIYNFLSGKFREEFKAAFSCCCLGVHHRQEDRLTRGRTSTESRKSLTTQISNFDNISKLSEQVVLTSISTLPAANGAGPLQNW
# Orexin receptor type 2 [6] = target: T3, Orexin receptor type 2; test: Counterscreen assay for antagonists of the orexin 1 receptor (OX1R; HCRTR1): Homogeneous Time Resolved Fluorescence (HTRF)-based cell-based dose response assay for antagonists of the orexin 2 receptor (OX2R; HCRTR2), run by assay provider.; assay type: functional
# Ephrin type-A receptor 4 = Ephrin type-A receptor 4 (Mus musculus, UniProt Q03137); test: inhibitors of EphA4 binding to KYL peptide, primary screen, biochemical, colorimetric, mouse EphA4 (AID 689); assay type: functional
# [7] = Luminescent dose response cell-based high throughput screening assay for inhibitors of the Janus kinase 2 mutant JAK2V617F. [Related pubchem assays: 1446 (Primary screen.), 1521 (Confirmation assay.), 1486 (Counter screen.)]; assay type: functional
# BJ [8] = test: cytotoxicity toward BJ-TERT fibroblasts, dose response, cell-based, RAS-independent, luminescence (AID 1933); assay type: functional; conditions: Homo sapiens
# BJ [9] = test: cells; assay type: functional, cell-based; conditions: Homo sapiens
# BJ [10] = test: cytotoxicity toward BJ-TERT-LT-ST fibroblasts, dose response, cell-based, RAS-independent, luminescence (AID 1935); assay type: functional; conditions: Homo sapiens;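 also: BJ fibroblasts immortalized with TERT plus LT and ST oncogenes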
# [11] = cytotoxicity toward DRD oncogenic fibroblasts, dose response, cell-based, non-viral oncogenic, luminescence (AID 1934); assay type: functional; conditions: Homo sapiens
# Jurkat = test: antigen receptor-induced NF-kB inhibitors, dose response, Jurkat, luciferase reporter, luminescence, B- and T-cell (AID 489004); assay type: functional, cell-based; conditions: Homo sapiens;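 also: NF-kB luciferase reporter Jurkat cells stimulated with PMA plus ionomycin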
# [12] = cytotoxicity in HEK-293T NF-kB-Luc cells, dose response, cytotoxicity control for B/T-cell NF-kB inhibitor project, cell-based, uHTS hits (AID 489019); assay type: functional;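 also: IC50 reflects cytotoxicity as loss of cell viability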
# BJ [13] = test: cytotoxicity toward Ras-transformed BJeLR fibroblasts, dose response, cell-based, alamar blue fluorescence, cherrypicked samples (AID 2631); assay type: functional; conditions: Homo sapiens;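 also: confirmatory dose-response assay in RAS-dependent BJ fibroblasts engineered with TERT, LT and ST, with cytotoxicity read by fluorescence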
# Paired box protein Pax-8 = Paired box protein Pax-8 (Homo sapiens, UniProt Q06710); test: inhibitors of PAX8-driven TPO luciferase reporter, dose response, RMG-I cells, cherry-pick (AID 687027); assay type: functional, cell-based;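 also: luciferase reporter driven by Pax8 target thyroperoxidase promoter measured by SteadyGlo luminescence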
# [14] = non-specific cell cytotoxicity, dose response, cytotoxicity control for PAX8 inhibitor project, plate reader, dry powder samples (AID 743021); assay type: functional, cell-based
# [15] = M. tuberculosis growth inhibition, HTS (AID 449762); assay type: functional
# [16] = microbe, parasite or virus in culture; assay type: functional; conditions: Mycobacterium tuberculosis
# Large T antigen = Large T antigen (Simian virus 40, UniProt P03070); assay type: functional, Betapolyomavirus macacae;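 also: Confirmatory-stage PubChem screen for compounds that inhibit SV40 T antigen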
# [17] = target: T4, Mannose-6-phosphate isomerase (Homo sapiens, UniProt P34949); test: inhibitors of human PMI, primary screen, biochemical, fluorescence intensity, coupled assay (AID 1209)
# T4 sequence (P34949 whole entry): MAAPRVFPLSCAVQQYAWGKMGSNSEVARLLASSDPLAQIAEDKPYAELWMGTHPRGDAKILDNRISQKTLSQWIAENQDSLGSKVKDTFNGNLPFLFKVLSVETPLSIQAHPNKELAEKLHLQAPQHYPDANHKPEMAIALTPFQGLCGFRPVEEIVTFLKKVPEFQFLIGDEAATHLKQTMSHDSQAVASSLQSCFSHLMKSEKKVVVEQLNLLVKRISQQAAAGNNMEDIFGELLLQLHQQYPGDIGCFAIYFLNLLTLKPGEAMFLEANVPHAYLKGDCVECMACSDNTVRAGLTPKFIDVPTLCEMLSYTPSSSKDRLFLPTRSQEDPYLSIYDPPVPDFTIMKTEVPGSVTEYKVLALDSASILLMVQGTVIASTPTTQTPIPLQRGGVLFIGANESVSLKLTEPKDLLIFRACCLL
# [18] = target: T4, Mannose-6-phosphate isomerase; test: human PMI inhibitors, high substrate, primary screen, biochemical, fluorescence intensity, high mannose 6-phosphate (AID 1220)
# [19] = inhibitors of Vif binding to APOBEC3G peptide, primary screen, biochemical, TR-FRET, GST-Vif 1-94, biotin-A3G peptide, dose response retest (AID 1117319); assay type: functional;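 also: TR-FRET signal of purified GST-Vif binding a biotinylated A3G peptide; inhibitors lower the FRET signal by blocking Vif and A3G binding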
# [20] = Vero cell cytotoxicity, dose response, cytotoxicity control for Vif-APOBEC3G degradation inhibitor project, Vero cells (AID 1117358); assay type: functional; conditions: Human immunodeficiency virus 1, Vero
# Ephrin type-A receptor 4, sequence (Q03137 whole entry): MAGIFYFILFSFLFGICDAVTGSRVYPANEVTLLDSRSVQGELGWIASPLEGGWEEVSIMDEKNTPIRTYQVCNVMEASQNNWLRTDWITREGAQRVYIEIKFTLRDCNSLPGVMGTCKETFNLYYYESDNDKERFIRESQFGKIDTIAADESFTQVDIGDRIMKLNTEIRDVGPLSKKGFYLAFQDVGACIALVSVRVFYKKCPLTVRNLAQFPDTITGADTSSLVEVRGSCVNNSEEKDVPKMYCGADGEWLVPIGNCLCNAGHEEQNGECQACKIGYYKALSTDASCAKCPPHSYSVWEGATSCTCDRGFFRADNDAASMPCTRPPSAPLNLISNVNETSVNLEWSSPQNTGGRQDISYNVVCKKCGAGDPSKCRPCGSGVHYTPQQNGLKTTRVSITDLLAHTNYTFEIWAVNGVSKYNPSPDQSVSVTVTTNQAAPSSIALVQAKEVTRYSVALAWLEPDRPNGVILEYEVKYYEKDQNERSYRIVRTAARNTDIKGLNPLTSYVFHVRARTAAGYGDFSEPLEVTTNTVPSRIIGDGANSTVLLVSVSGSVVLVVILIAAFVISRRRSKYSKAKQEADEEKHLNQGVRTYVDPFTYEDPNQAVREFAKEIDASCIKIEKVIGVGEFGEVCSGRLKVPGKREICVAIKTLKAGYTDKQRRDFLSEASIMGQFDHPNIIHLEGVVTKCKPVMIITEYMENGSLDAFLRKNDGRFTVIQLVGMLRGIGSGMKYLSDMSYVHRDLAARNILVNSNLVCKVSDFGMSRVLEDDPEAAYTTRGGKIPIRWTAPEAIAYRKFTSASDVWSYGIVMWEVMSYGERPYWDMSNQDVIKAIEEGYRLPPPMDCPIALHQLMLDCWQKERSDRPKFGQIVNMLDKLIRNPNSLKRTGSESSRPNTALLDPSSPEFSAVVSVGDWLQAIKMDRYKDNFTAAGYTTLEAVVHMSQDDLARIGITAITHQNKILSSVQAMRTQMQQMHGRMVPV
# Large T antigen, sequence (P03070 whole entry): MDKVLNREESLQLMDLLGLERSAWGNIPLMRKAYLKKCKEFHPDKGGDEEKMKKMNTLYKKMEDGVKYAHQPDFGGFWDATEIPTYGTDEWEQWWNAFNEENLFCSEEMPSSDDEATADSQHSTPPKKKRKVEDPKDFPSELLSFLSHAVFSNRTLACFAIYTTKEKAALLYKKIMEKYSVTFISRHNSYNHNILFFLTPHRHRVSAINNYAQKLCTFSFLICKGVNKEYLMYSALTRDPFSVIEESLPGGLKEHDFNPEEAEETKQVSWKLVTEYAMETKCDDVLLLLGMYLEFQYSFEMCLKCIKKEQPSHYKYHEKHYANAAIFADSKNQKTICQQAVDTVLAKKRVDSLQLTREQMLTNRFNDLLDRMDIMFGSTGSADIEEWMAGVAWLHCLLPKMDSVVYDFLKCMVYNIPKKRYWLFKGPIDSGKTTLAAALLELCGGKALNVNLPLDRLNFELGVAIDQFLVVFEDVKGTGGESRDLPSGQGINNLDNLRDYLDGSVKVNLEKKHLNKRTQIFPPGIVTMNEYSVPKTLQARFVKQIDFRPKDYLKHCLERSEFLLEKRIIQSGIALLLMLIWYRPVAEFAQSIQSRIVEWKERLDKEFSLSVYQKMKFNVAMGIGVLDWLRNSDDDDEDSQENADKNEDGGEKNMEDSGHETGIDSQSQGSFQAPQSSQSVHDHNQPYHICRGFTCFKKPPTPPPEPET
# Voltage-gated inwardly rectifying potassium channel KCNH2, sequence (Q12809 whole entry): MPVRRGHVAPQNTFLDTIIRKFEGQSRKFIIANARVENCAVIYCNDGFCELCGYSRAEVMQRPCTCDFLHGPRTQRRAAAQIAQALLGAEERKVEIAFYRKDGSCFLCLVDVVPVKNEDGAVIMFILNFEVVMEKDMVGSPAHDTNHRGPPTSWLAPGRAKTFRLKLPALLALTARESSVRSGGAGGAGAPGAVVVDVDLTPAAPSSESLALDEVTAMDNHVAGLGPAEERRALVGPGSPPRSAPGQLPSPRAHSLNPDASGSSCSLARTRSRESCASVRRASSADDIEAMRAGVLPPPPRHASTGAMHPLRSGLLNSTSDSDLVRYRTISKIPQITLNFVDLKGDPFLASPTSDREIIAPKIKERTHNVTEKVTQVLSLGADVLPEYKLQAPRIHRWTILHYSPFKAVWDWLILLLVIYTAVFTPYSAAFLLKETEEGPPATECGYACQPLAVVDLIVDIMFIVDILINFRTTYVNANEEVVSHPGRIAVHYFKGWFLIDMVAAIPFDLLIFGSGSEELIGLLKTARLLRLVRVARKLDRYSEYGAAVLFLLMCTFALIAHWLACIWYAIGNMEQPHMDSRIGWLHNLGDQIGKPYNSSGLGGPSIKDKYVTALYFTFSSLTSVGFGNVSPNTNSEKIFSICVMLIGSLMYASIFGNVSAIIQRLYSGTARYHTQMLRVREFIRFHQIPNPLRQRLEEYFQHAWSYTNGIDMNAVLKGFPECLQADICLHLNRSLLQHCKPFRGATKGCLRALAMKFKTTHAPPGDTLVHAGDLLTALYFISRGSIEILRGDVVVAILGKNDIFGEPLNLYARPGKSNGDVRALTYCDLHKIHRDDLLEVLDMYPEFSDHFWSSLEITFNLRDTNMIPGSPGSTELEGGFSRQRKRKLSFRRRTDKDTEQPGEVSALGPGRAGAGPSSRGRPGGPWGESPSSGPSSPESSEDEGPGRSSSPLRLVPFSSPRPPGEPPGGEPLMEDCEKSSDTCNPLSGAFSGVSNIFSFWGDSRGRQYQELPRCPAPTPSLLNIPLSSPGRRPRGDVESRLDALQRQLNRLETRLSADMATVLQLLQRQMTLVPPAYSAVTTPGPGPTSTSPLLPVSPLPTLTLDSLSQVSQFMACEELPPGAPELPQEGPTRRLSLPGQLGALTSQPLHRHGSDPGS
# Paired box protein Pax-8, sequence (Q06710 whole entry): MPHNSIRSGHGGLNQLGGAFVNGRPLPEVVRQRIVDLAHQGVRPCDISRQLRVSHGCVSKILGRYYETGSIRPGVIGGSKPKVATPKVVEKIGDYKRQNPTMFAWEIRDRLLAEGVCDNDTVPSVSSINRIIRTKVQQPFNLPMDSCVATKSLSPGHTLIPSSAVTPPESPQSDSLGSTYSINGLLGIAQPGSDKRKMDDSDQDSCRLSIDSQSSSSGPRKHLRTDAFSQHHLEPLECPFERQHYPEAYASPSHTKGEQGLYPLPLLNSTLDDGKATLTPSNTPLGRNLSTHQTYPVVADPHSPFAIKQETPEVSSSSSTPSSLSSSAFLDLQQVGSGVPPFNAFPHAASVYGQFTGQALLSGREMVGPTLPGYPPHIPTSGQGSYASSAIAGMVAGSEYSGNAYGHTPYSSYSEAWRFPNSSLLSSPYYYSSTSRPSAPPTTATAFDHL
structure (smiles),measurement,setting,value
CC=C(NNc1c(Cl)c(Cl)nc(C(=O)O)c1Cl)c1ccccc1,IC50,NADPH oxidase 1,> 17 µM (not active)
O=C(NC(=S)Nc1nc(-c2ccccc2)cs1)c1ccco1,EC50,[1],0.15 µM (active)
same,IC50,CHO-K1,> 66.2 µM (inactive)
same,IC50,[2],> 49.7 µM (inactive)
same,IC50,[3],7.37 µM (active)
same,IC50,[4],> 49.7 µM (inactive)
same,IC50,Orexin receptor type 2 [5],> 88.8 µM (inactive)
same,IC50,Orexin receptor type 2 [6],> 50 µM (inactive)
Cc1ccc(C)c(OCc2nnc(N)s2)c1,IC50,Ephrin type-A receptor 4,> 100 µM (not active)
O=C(CCl)/N=c1\sccn1Cc1ccccc1Cl,IC50,[7],0.442 µM (active)
same,EC50,BJ [8],0.403 µM (inconclusive)
same,EC50,BJ [9],1.33 µM (inconclusive)
same,EC50,BJ [10],12.1 µM (inconclusive)
same,EC50,[11],0.691 µM (active)
same,IC50,Jurkat,0.31 µM (active)
same,IC50,[12],> 80 µM (inactive)
same,EC50,BJ [13],0.343 µM (active)
same,AC50,Paired box protein Pax-8,1.64 µM (active)
same,AC50,[14],2.74 µM (active)
O=C(N/N=C/c1cn(-c2ccccc2)nc1-c1cccs1)c1ccc(Cl)cc1,IC50,[15],> 100 µM (active)
same,CC50,[16],23.1 µM (active)
Oc1ccc(/C=N/NP(=S)(c2ccccc2)c2ccccc2)cc1O,IC50,Large T antigen,54.9 µM (active)
same,IC50,[17],> 50 µM (not active)
same,IC50,[18],> 50 µM (not active)
same,IC50,[19],> 100 µM (active)
same,CC50,[20],> 40 µM (active)
